Test results published in ChEMBL document CHEMBL5653631, “A Potent and Selective ULK1 Inhibitor Suppresses Autophagy and Sensitizes Cancer Cells to Nutrient Stress” (iScience, 2018).

What was measured:
[1] = target: Protein kinase C alpha type (Homo sapiens) (UniProt P17252); experiment: Inhibition of human recombinant PKCa at 500 nM in presence of ATP by radiometric assay relative to control
[2] = target: Tyrosine-protein kinase HCK (Homo sapiens) (UniProt P08631); experiment: Inhibition of human recombinant HCK at 500 nM related to control ULK1
[3] = target: Glycogen synthase kinase-3 alpha (Homo sapiens) (UniProt P49840); experiment: Inhibition of human recombinant GSK3A at 15 nM in presence of ATP by radiometric assay relative to control
[4] = target: T1, Inhibitor of nuclear factor kappa-B kinase subunit beta (Homo sapiens) (UniProt O14920); experiment: Inhibition of human recombinant IKKb at 15 nM related to control ULK1
T1 sequence (whole entry): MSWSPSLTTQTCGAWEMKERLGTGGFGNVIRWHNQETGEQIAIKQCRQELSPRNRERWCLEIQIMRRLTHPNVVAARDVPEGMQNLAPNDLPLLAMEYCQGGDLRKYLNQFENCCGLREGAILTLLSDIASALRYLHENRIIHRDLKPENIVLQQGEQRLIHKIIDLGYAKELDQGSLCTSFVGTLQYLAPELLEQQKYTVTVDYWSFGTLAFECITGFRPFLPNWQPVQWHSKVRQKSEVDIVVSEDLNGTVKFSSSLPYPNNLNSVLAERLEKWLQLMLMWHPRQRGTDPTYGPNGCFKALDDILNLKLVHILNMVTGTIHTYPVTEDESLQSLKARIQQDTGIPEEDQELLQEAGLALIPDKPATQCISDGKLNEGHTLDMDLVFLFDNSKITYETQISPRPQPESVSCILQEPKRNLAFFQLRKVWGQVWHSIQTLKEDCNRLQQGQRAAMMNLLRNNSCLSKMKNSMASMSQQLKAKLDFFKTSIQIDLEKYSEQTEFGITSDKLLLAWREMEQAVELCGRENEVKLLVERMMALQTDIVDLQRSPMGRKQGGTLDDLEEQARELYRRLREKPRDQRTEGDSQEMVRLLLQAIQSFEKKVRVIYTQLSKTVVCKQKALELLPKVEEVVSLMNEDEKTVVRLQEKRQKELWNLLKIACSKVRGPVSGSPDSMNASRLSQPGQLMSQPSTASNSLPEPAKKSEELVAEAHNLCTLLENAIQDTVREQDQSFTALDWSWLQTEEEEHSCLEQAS

[5] = target: T2, Serine/threonine-protein kinase Nek11 (Homo sapiens) (UniProt Q8NG66); experiment: Inhibition of human recombinant NEK11 at 15 nM in presence of ATP by radiometric assay relative to control
T2 sequence (whole entry): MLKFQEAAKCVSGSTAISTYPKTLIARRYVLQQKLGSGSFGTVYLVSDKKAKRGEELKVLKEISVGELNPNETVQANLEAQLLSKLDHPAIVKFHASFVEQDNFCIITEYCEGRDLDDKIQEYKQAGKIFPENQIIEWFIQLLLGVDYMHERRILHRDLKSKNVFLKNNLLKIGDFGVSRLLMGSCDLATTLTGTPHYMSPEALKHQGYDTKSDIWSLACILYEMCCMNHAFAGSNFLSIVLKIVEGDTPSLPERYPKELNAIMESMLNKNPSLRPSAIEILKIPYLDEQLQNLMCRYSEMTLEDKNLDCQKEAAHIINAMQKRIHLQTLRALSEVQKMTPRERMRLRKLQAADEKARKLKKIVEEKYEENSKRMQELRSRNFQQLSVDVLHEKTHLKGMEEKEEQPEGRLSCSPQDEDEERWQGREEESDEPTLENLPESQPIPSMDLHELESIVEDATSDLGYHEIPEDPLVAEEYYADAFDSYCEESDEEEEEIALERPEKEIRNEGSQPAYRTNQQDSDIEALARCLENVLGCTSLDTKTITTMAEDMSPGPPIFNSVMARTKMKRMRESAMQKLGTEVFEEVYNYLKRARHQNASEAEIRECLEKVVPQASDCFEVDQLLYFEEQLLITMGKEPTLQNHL

[6] = target: Serine/threonine-protein kinase mTOR (Homo sapiens) (UniProt P42345); experiment: Inhibition of human recombinant FRAP at 15 nM in presence of ATP by radiometric assay relative to control
[7] = target: Tyrosine-protein kinase Tec (Homo sapiens) (UniProt P42680); experiment: Inhibition of human recombinant TEC at 40 nM related to control ULK1
[8] = target: Mitogen-activated protein kinase 10 (Homo sapiens) (UniProt P53779); experiment: Inhibition of human recombinant JNK3 at 40 nM related to control ULK1
[9] = target: T3, Testis-specific serine/threonine-protein kinase 2 (Homo sapiens) (UniProt Q96PF2); experiment: Inhibition of human recombinant TSSK2 at 40 nM in presence of ATP by radiometric assay relative to control
T3 sequence (whole entry): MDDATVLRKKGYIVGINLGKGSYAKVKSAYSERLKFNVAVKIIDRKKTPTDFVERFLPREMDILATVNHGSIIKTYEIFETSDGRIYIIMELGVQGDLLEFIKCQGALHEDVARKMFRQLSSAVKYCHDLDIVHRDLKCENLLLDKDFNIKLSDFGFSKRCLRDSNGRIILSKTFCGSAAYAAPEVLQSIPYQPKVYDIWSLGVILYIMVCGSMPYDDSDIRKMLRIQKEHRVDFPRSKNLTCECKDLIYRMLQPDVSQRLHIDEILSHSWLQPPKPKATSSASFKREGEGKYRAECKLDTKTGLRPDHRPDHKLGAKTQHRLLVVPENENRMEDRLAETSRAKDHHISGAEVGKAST

[10] = target: T4, Tyrosine-protein kinase ITK/TSK (Homo sapiens) (UniProt Q08881); experiment: Inhibition of human recombinant ITK at 40 nM in presence of ATP by radiometric assay relative to control
T4 sequence (whole entry): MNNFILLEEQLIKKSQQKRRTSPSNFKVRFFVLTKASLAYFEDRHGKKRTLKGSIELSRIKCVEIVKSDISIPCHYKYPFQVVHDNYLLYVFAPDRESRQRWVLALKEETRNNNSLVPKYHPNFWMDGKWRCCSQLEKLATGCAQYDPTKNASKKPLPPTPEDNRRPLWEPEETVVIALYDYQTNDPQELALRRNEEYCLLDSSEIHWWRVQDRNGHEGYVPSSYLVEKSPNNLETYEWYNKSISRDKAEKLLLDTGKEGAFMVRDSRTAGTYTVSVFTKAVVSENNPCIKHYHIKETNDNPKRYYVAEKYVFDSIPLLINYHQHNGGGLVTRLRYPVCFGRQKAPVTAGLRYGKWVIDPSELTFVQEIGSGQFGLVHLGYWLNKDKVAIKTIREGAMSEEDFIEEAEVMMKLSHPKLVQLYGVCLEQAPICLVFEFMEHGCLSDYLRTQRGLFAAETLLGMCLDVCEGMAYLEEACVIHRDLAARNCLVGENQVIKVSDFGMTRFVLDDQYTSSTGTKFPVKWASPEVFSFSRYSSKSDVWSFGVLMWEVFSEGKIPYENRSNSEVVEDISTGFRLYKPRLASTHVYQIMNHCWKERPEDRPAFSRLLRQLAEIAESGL

Mitogen-activated protein kinase 10 (Homo sapiens), sequence (P53779 whole entry): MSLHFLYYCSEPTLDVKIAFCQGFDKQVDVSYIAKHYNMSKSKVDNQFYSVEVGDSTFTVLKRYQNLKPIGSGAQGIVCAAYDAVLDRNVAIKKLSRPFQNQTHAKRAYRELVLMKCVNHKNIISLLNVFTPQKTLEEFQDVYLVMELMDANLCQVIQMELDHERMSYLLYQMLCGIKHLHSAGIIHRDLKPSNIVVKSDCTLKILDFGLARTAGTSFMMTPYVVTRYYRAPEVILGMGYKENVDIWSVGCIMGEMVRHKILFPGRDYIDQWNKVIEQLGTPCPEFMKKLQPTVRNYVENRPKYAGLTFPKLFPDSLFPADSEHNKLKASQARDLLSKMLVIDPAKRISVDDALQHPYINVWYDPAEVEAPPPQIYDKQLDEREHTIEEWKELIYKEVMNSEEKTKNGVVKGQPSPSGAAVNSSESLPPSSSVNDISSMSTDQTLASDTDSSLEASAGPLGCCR
Glycogen synthase kinase-3 alpha (Homo sapiens), sequence (P49840 2-483 limits assumed): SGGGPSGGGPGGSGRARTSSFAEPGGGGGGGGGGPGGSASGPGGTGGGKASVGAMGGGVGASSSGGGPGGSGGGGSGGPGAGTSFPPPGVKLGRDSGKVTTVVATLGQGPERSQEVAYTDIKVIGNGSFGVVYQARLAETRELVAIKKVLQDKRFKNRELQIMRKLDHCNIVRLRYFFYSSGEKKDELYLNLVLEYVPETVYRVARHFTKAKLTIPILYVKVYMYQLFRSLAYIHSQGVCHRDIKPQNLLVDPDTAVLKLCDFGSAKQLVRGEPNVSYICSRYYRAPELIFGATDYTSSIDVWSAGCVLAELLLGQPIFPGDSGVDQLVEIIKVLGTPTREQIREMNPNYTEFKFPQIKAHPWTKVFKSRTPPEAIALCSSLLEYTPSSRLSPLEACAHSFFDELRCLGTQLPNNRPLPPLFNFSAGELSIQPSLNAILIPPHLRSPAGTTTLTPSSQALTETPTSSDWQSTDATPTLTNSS
Tyrosine-protein kinase HCK (Homo sapiens), sequence (P08631 2-526 limits assumed): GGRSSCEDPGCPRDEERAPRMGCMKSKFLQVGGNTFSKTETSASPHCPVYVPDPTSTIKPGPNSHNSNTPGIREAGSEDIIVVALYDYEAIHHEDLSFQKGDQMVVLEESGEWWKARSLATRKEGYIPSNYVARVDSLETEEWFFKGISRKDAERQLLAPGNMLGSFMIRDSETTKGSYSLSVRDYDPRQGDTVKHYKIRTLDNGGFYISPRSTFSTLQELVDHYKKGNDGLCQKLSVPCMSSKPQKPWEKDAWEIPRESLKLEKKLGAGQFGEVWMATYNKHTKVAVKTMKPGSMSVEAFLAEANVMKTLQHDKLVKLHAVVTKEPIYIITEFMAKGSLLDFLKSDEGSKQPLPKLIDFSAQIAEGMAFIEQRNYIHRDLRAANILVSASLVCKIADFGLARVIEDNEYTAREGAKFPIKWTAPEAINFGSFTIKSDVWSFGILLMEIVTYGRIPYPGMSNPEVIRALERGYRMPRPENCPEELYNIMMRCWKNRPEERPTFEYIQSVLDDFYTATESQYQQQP
Tyrosine-protein kinase Tec (Homo sapiens), sequence (P42680 whole entry, looked up): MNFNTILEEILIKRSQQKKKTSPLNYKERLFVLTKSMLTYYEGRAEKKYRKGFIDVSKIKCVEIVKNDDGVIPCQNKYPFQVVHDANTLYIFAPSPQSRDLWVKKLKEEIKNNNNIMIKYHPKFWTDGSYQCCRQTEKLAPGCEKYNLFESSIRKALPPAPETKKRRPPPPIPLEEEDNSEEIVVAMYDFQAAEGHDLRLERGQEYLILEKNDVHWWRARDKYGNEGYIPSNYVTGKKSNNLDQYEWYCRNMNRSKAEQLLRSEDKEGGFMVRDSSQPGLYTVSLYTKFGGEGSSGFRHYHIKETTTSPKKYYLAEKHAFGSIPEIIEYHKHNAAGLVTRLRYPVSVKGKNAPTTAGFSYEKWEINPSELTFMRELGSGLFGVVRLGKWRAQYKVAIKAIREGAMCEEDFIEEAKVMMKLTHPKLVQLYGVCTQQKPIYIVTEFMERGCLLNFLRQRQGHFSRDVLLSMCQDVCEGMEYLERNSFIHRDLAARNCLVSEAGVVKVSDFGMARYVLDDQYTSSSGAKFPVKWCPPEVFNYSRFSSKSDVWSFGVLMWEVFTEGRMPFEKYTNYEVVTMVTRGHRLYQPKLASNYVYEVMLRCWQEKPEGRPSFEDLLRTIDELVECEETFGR

SMILES: CNC(=O)c1ccccc1Oc1nc(Nc2cc(OC)c(OC)c(OC)c2)ncc1Br
- inhibition [1]: 0%
- fold change (FC) [2]: 0.23

SMILES: CC(C)[C@H](NC(=O)c1cc(-c2cnn3cc(-c4ccc(OCCN5CCCCC5)cc4)cnc23)cs1)C(F)(F)F
- inhibition [3]: 0%
- fold change (FC) [4]: 0
- inhibition [5]: 0%
- inhibition [6]: 0%

SMILES: O=C(N[C@@H](C1CC1)C(F)(F)F)c1cc(-c2cnn3cc(-c4ccc(F)cc4)cnc23)cs1
- fold change (FC) [7]: 0
- fold change (FC) [8]: 0
- inhibition [9]: 0%
- inhibition [10]: 0%
